# Legend:
# [1] = Solubility of the compound by CLND assay; assay type: physicochemical
# [2] = Permeability of compound by AMP assay; assay type: ADME; conditions: not told; read-out: permeability
# [3] = Distribution coefficient, logD of the compound by chromatography; assay type: physicochemical; conditions: octanol/water
# [4] = Kinetic solubility of compound […] using the charged aerosol detector (CAD) analysis; assay type: physicochemical; conditions: read-out: Kinetic_solubility
# [5] = Solubility of the compound in FaSSIF at pH 6.5 incubated for 16 hrs by HPLC gradient analysis; assay type: physicochemical; conditions: for solubility at 16 h: FaSSIF, pH 6.5; for solubility: simulated gi fluid, pH 6.5, 16 h
# [6] = Solubility of the compound in FaSSIF at pH 6.5 using crystalline form of sample incubated for 16 hrs by HPLC gradient analysis; assay type: physicochemical
# [7] = Intrinsic clearance in human hepatocytes measured per gram of tissue incubated for 120 mins by LC-MS/MS method; assay type: ADME, cell-based, Hepatocyte; conditions: 2 h
# [8] = Intrinsic clearance in Wistar han rat hepatocytes measured per gram of tissue incubated for 60 mins by LC-MS/MS method; assay type: ADME, cell-based, Hepatocyte; conditions: 1 h
# [9] = Intrinsic clearance in dog hepatocytes measured per gram of tissue by LC-MS/MS method; assay type: ADME, cell-based, Canis lupus familiaris, Hepatocyte
smiles,measurement,setting,value
CNC(=O)c1cc(C(=O)NCCO)n([C@@H](C)c2ccccc2)n1,solubility kinetic,[1],≥ 139 µg/mL
same,Papp,[2],5.9 ×10⁻⁶ cm/s
same,chromatographic logD,[3],2.4
CNC(=O)c1cc(C(=O)N[C@H]2CC[C@H](O)CC2)c([C@@H](C)c2cccc(OC)c2)o1,solubility kinetic,[4],≥ 113 µg/mL
same,solubility at 16 h,[5],868 µg/mL
same,Papp,[2],4.4 ×10⁻⁶ cm/s
same,chromatographic logD,[3],2.9
CCCNC(=O)c1cc(C(=O)NC)nn1[C@@H](C)c1ccccc1,solubility kinetic,[1],≥ 132 µg/mL
same,Papp,[2],56 ×10⁻⁶ cm/s
same,chromatographic logD,[3],4.4
CCC(=O)c1c[nH]c(C(=O)NC)c1,solubility kinetic,[4],87 µg/mL
same,solubility at 16 h,[5],13 µg/mL
same,Papp,[2],20 ×10⁻⁶ cm/s
same,chromatographic logD,[3],3.1
CNC(=O)c1cc(C(=O)NCCO)c([C@@H](C)c2ccccc2)o1,solubility kinetic,[1],≥ 132 µg/mL
same,Papp,[2],3.3 ×10⁻⁶ cm/s
same,solubility thermodynamic at 16 h,[6],925 µg/mL
same,chromatographic logD,[3],2.3
CNC(=O)c1cc(C(=O)NC2CC2)c([C@H](C)c2ccccc2)o1,solubility kinetic,[4],≥ 112 µg/mL
same,Papp,[2],> 0.4 ×10⁻⁶ cm/s
same,chromatographic logD,[3],3.6
CNC(=O)c1cc(C(=O)N[C@H]2[C@@H]3C[C@H](O)C[C@@H]32)n([C@@H](C)c2cccc(Cl)c2)n1,solubility kinetic,[4],≥ 168 µg/mL
same,solubility at 16 h,[5],327 µg/mL
same,CLint,[7],10.8 mL/min/g
same,CLint,[8],17.3 mL/min/g
same,Papp,[2],33.3 ×10⁻⁶ cm/s
same,chromatographic logD,[3],3.7
same,CLint,[9],8.3 mL/min/g
CCNC(=O)c1cc(C(=O)NC)nn1[C@@H](C)c1ccccc1,solubility kinetic,[1],≥ 137 µg/mL
same,Papp,[2],43.5 ×10⁻⁶ cm/s
same,chromatographic logD,[3],3.7
CNC(=O)c1cc(C(=O)N[C@H]2[C@@H]3C[C@@H](OC)C[C@@H]32)n([C@@H](C)c2ccccc2)n1,solubility kinetic,[1],≥ 150 µg/mL
same,Papp,[2],44 ×10⁻⁶ cm/s
same,solubility thermodynamic at 16 h,[6],> 1000 µg/mL
same,chromatographic logD,[3],2.7
CNC(=O)c1cc(C(=O)NC(C)CO)c([C@@H](C)c2ccccc2)o1 (stereo partly drawn),solubility kinetic,[1],≥ 121 µg/mL
same,Papp,[2],5.7 ×10⁻⁶ cm/s
same,chromatographic logD,[3],2.7
CNC(=O)c1cc(C(=O)N[C@H]2CC[C@H](O)CC2)c([C@@H](C)c2ccc(Cl)cc2)o1,solubility kinetic,[4],≥ 118 µg/mL
same,Papp,[2],15 ×10⁻⁶ cm/s
same,chromatographic logD,[3],3.5
CNC(=O)c1cc(C(=O)N[C@H]2CC[C@H](O)CC2)n([C@@H](C)c2ccc(C(F)(F)F)cc2)n1,solubility kinetic,[4],≥ 175 µg/mL
same,Papp,[2],27 ×10⁻⁶ cm/s
same,chromatographic logD,[3],3.9
CNC(=O)c1cc(C(=O)NC)n([C@@H](C)c2ccccc2)n1,solubility kinetic,[1],≥ 88 µg/mL
same,Papp,[2],28 ×10⁻⁶ cm/s
same,chromatographic logD,[3],3
CNC(=O)c1cc(C(=O)NC(C)CO)n([C@@H](C)c2ccccc2)n1 (stereo partly drawn),solubility kinetic,[1],≥ 132 µg/mL
same,Papp,[2],12 ×10⁻⁶ cm/s
same,chromatographic logD,[3],2.8
CNC(=O)c1cc(C(=O)N[C@H]2CC[C@H](OC)CC2)n([C@@H](CO)c2ccccc2)n1,solubility kinetic,[4],≥ 164 µg/mL
same,solubility at 16 h,[5],> 1000 µg/mL
same,Papp,[2],3.9 ×10⁻⁶ cm/s
same,chromatographic logD,[3],2.7
CNC(=O)c1cc(C(=O)NC2CC2)cn([C@H](C)c2ccccc2)c1=O,chromatographic logD,[3],3.5
CNC(=O)c1cc(C(=O)NC2CC2)n([C@@H](C)c2ccccc2)n1,solubility kinetic,[4],≥ 165 µg/mL
same,solubility kinetic,[1],≥ 165 µg/mL
same,solubility,[5],939 µg/mL
same,Papp,[2],> 40 ×10⁻⁶ cm/s
same,chromatographic logD,[3],3.6
CNC(=O)c1cc(C(=O)N[C@H]2[C@@H]3C[C@@H](O)C[C@@H]32)n([C@@H](C)c2ccccc2)n1,solubility kinetic,[1],≥ 291 µg/mL
same,Papp,[2],6.1 ×10⁻⁶ cm/s
same,solubility thermodynamic at 16 h,[6],101 µg/mL
same,chromatographic logD,[3],3.2
CC[C@@H](c1ccccc1)n1nc(C(=O)NC)cc1C(=O)N[C@H]1CC[C@H](O)CC1,solubility kinetic,[4],138 µg/mL
same,solubility at 16 h,[5],> 1000 µg/mL
same,Papp,[2],7 ×10⁻⁶ cm/s
CNC(=O)c1cc(C(=O)N[C@H]2CC[C@H](O)CC2)c([C@@H](C)c2ccc(C)cc2)o1,solubility kinetic,[4],≥ 245 µg/mL
same,solubility at 16 h,[5],> 1000 µg/mL
same,Papp,[2],10.8 ×10⁻⁶ cm/s
same,chromatographic logD,[3],3.4
CNC(=O)c1cc(C(=O)NC2CC2)c([C@@H](C)c2ccccc2)o1,solubility kinetic,[4],≥ 145 µg/mL
same,solubility kinetic,[1],≥ 145 µg/mL
same,solubility,[5],423 µg/mL
same,Papp,[2],50 ×10⁻⁶ cm/s
same,chromatographic logD,[3],3.6
CNC(=O)c1cc(C(=O)NC2CC2)cn([C@@H](C)c2ccccc2)c1=O,solubility at 16 h,[5],699 µg/mL
same,chromatographic logD,[3],3.3
CNC(=O)c1cc(C(=O)NC2CC2)n(Cc2ccccc2)n1,solubility kinetic,[4],≥ 155 µg/mL
same,solubility at 16 h,[5],285 µg/mL
same,Papp,[2],> 8 ×10⁻⁶ cm/s
same,chromatographic logD,[3],3.1
CC[C@@H](c1ccccc1)n1nc(C(=O)NC)cc1C(=O)N[C@H]1[C@@H]2C[C@H](O)C[C@@H]21,Papp,[2],23 ×10⁻⁶ cm/s
same,chromatographic logD,[3],3.6
CCNC(=O)c1cc(C(=O)NC)oc1[C@@H](C)c1ccccc1,solubility kinetic,[1],≥ 148 µg/mL
same,Papp,[2],42 ×10⁻⁶ cm/s
same,solubility thermodynamic at 16 h,[6],432 µg/mL
same,chromatographic logD,[3],3.5
CNC(=O)c1cc(C(=O)N[C@H]2CC[C@H](O)CC2)c([C@@H](C)c2cccc(F)c2)o1,solubility kinetic,[4],≥ 63 µg/mL
same,Papp,[2],7.3 ×10⁻⁶ cm/s
same,chromatographic logD,[3],4.1
CNC(=O)c1cc(C(=O)NC2CCOCC2)n([C@@H](C)c2ccccc2)n1,solubility kinetic,[1],31 µg/mL
same,Papp,[2],27 ×10⁻⁶ cm/s
same,chromatographic logD,[3],3.6
CCNC(=O)c1cc2c(-c3cc(C(C)(C)O)ccc3Oc3c(C)cc(F)cc3C)cn(C)c(=O)c2[nH]1 [ABBV-744],solubility kinetic,[4],26 µg/mL
same,CLint,[7],5.1 mL/min/g
same,Papp,[2],41.3 ×10⁻⁶ cm/s
same,chromatographic logD,[3],5.1
CNC(=O)c1cc(C(=O)N[C@H]2CC[C@H](O)CC2)n([C@@H](C)c2cccc(C)c2)n1,solubility kinetic,[4],≥ 180 µg/mL
same,Papp,[2],11 ×10⁻⁶ cm/s
same,chromatographic logD,[3],3.4
CNC(=O)c1cc(C(=O)N[C@H]2CC[C@H](O)CC2)n([C@@H](C)c2cccc(C(F)(F)F)c2)n1,solubility kinetic,[4],7 µg/mL
same,Papp,[2],28 ×10⁻⁶ cm/s
same,chromatographic logD,[3],4.1
CC[C@@H](c1ccccc1)n1nc(C(=O)NC)cc1C(=O)N[C@H]1[C@@H]2C[C@@H](O)C[C@@H]21,solubility at 16 h,[5],56 µg/mL
same,Papp,[2],12 ×10⁻⁶ cm/s
same,chromatographic logD,[3],3.3
CNC(=O)c1cc(C(=O)N[C@H]2CC[C@H](OC)CC2)c([C@@H](C)c2ccccc2)o1,solubility kinetic,[1],≥ 192 µg/mL
same,Papp,[2],30.3 ×10⁻⁶ cm/s
same,solubility thermodynamic at 16 h,[6],141 µg/mL
same,chromatographic logD,[3],4.1
CNC(=O)c1cc(C(=O)N[C@H]2CC[C@H](O)CC2)n([C@@H](C)c2ccc(Cl)cc2)n1,solubility kinetic,[4],≥ 132 µg/mL
same,solubility at 16 h,[5],102 µg/mL
same,Papp,[2],18 ×10⁻⁶ cm/s
same,chromatographic logD,[3],3.7
CNC(=O)c1cc(C(=O)N[C@H]2CC[C@H](O)CC2)c([C@@H](C)c2cccc(C)c2)o1,solubility kinetic,[4],≥ 172 µg/mL
same,solubility at 16 h,[5],> 1000 µg/mL
same,Papp,[2],8.5 ×10⁻⁶ cm/s
same,chromatographic logD,[3],3.3
CCCNC(=O)c1cc(C(=O)NC)oc1[C@@H](C)c1ccccc1,solubility kinetic,[1],≥ 127 µg/mL
same,Papp,[2],48 ×10⁻⁶ cm/s
same,chromatographic logD,[3],4.2
CNC(=O)c1cc(C(=O)N[C@H]2CC[C@H](O)CC2)c([C@@H](C)c2ccccc2Cl)o1,solubility kinetic,[4],≥ 242 µg/mL
same,solubility at 16 h,[5],> 1000 µg/mL
same,Papp,[2],7.8 ×10⁻⁶ cm/s
same,chromatographic logD,[3],3.1
CNC(=O)c1cc(C(=O)N[C@H]2CC[C@H](O)CC2)n([C@@H](C)c2ccccc2Cl)n1,solubility kinetic,[4],≥ 182 µg/mL
same,Papp,[2],10 ×10⁻⁶ cm/s
same,chromatographic logD,[3],3.9
CNC(=O)c1cc(C(=O)N[C@H]2CC[C@H](O)CC2)n([C@@H](C)c2cccc(Cl)c2)n1,solubility kinetic,[4],≥ 143 µg/mL
same,solubility at 16 h,[5],196 µg/mL
same,Papp,[2],23.5 ×10⁻⁶ cm/s
same,chromatographic logD,[3],3.7

# Reference: ChEMBL document CHEMBL4834464, “Fragment-based Scaffold Hopping: Identification of Potent, Selective, and Highly Soluble Bromo and Extra Terminal Domain (BET) Second Bromodomain (BD2) Inhibitors” (J Med Chem, 2021)
